Marks after values point to notes of the source that are not given here.
Assays:
[1] = tested on: histamine-induced scratching behavior; test: Antipruritic activity in histamine-induced scratching model, dose response (Experiment 3 (1)); format: in vivo, mouse
Procedure: (1) [Antipruritic Activity of Test Compound in Histamine-Induced Scratching Model]
After topical administration of a solution (50 μL) of test compound (0.3 to 3% w/v solution of Compound A in acetone, or 0.03 to 0.3% w/v solution of cipamfylline in acetone), or a vehicle (acetone; 50 μL) onto right dorsal neck of ICR female mice similarly pre-treated as described in Experiment 1, these animals were placed into a testing apparatus (MicroAct). After one hour of the administration of said test compound solution or vehicle, a solution (50 μL) of histamine in saline (300 nmol/50 μL) or saline (50 μL; control group) was intradermally administered to right dorsal neck of each mouse. Immediately after the administration, scratching behavior (counts of scratching) was measured for 30 minutes by the testing apparatus (MicroAct).

[2] = tested on: oxazolone-induced inflammatory reactions of right ear auricle; test: Chronic oxazolone-induced dermatitis model: ear auricle thickness (Experiment 4); format: in vivo, mouse; conditions: Compound A 1%, Tacrolimus 0.1%, Dexamethasone 0.01% w/v in 0.25% oxazolone
Procedure: [Antipruritic Effect of Test Compound in Chronic Oxazolone-Induced Dermatitis Model]
A magnet for measurement was implanted into an instep part of right hindlimb of BALB/c male mouse (fed for one week from five-week old; Charles River Laboratories, Japan Inc.) under anesthesia, and on the same day, sensitization was carried out by topically administering 0.5% w/v solution (10 μL) of oxazolone in acetone respectively onto the both sides of right ear auricle of the animal (sensitization day). On each point of the 7th, 9th, 11th, 14th and 16th day reckoned from the day after the sensitization (1st day), each mouse was challenged by topical administration of a 10 μL solution of test compound [acetone (vehicle-treated group), 0.25% w/v solution of oxazolone in acetone (oxazolone-treated group), or a test compound solubilized in 0.25% w/v oxazolone solution in acetone (test compound-treated group)] onto the both sides of right ear auricle of the animal to produce inflammatory reactions. Immediately after the administration, scratching behavior (counts of scratching) was measured for two hours by MicroAct. Thickness of right ear auricle of each mouse was measured by a thickness gauge before and 24 hours after the topical administration of each test compound solution. The percentage described in the Table means “% w/v”.

[3] = tested on: spontaneous locomotor activity; test: Effect on spontaneous locomotor activity (Experiment 3 (2)); format: in vivo, mouse; conditions: for Spontaneous locomotor activity (Mean): measured from 1 h after administration
Procedure: (2) [Effect of Test Compound on Spontaneous Locomotor Activity] The same solution (50 μL) of test compound or a vehicle (50 μL) as described in the above-mentioned (1) was administered onto right dorsal neck of ICR female mice similarly pre-treated as described in Experiment 1. After one hour of the administration of the test compound solution or vehicle, these animals were placed into an apparatus for measuring spontaneous locomotor activity (SCANET, Melquest Ltd.), and their locomotor activity was measured for 30 minutes.

PDE4 = PDE4 inhibitory activity measured by a conventional manner; format: biochemical
Procedure: Ratio of inhibition rate on scratching behavior of each test compound to that of Compound A was calculated as antipruritic activity (%). For reference, PDE4 inhibitory activity of each compound (IC50) which was measured by a conventional manner is also shown in such Table.

[4] = tested on: pruritogen-induced scratching behavior; test: Antipruritic effect on pruritogen-induced scratching model (Experiment 1); format: in vivo, mouse; conditions: for Counts of scratching (Mean): 3% w/v in acetone 50 μL topical 1 h before, ICR female mouse
Excerpt: [Antipruritic Effect of Test Compound on Pruritogen-Induced Scratching Model]
For the purpose of measuring scratching behavior (counts of scratching), a cylindrical magnet (diameter: 1 mm, length: 3 mm) was implanted into instep of right hindlimb of each mouse (ICR female mouse, 6 weeks old; Charles River Laboratories, Japan Inc.) under anesthesia at least three days before testing, and hair on her right dorsal neck was removed by a shaver under anesthesia the day before testing. After topical administration of a solution of test compound in acetone (3% w/v solution of 1-[2-(4S)-4-hydroxy-1,2,3,4-tetrahydroquinolin-1-yl]-4-pyridyl]-2,3-bis(dihydroxymethyl)-6,7-dimethoxynaphthalene sesquihydrate, as hereinafter referred to as Compound A, in acetone; 50 μL) or a vehicle (acetone; 50 μL) to the right dorsal neck of the above-treated mouse, these mice were placed into a testing apparatus (MicroAct, Neuroscience Inc.). After one hour of the administration of the above-mentioned solution, to the right dorsal neck of each mouse was intradermally administered a solution (50 μL) of a pruritogen in saline [histamine: 300 nmol/50 μL, U-46619 (chemical name: 9,11-dideoxy-9α,11α-methanoepoxyprosta-5Z,13E-dien-1-oic acid, Cayman Chemical Company): 10 nmol/50 μL, Compound 48/80 (Sigma): 3 μg/50 μL, serotonin (Sigma): 100 nmol/50 μL, or Substance P (Peptide Institute Inc.): 300 nmol/50 μL] or saline. Immediately after the administration, scratching behavior (counts of scratching) was measured for 30 minutes by MicroAct.

COc1cc2cc(CO)c(CO)c(-c3ccnc(N4CC[C@H](O)c5ccccc54)c3)c2cc1OC [Compound A, 1-[2-(4S)-4-hydroxy-1,2,3,4-tetrahydroquinolin-1-yl]-4-pyridyl]-2,3-bis(dihydroxymethyl)-6,7-dimethoxynaphthalene sesquihydrate]
Counts of scratching (Mean) ([1]; 0.3% w/v in acetone 50 μL topical 1 h before histamine 300 nmol/50 μL): 634 beats/30 min. | Counts of scratching (Mean) ([1]; 1% w/v in acetone 50 μL topical 1 h before histamine 300 nmol/50 μL): 611 beats/30 min. | Counts of scratching (Mean) ([1]; 3% w/v in acetone 50 μL topical 1 h before histamine 300 nmol/50 μL): 314 beats/30 min. | Ear auricle thickness (Mean) ([2]; 7th day): 0.35 mm | Ear auricle thickness (Mean) ([2]; 8th day): 0.44** mm | Ear auricle thickness (Mean) ([2]; 9th day): 0.39** mm | Ear auricle thickness (Mean) ([2]; 10th day): 0.46** mm | Ear auricle thickness (Mean) ([2]; 11th day): 0.44** mm | Ear auricle thickness (Mean) ([2]; 12th day): 0.48** mm | Ear auricle thickness (Mean) ([2]; 14th day): 0.44** mm | Ear auricle thickness (Mean) ([2]; 15th day): 0.54** mm | Ear auricle thickness (Mean) ([2]; 16th day): 0.47** mm | Ear auricle thickness (Mean) ([2]; 17th day): 0.50** mm | Ear auricle thickness (Mean) ([2]; sensitization day, BALB/c male mouse): 0.27 mm | Spontaneous locomotor activity (Mean) ([3]; 0.3% w/v in acetone 50 μL topical): 5814 counts/30 min. | Spontaneous locomotor activity (Mean) ([3]; 1% w/v in acetone 50 μL topical): 5779 counts/30 min. | Spontaneous locomotor activity (Mean) ([3]; 3% w/v in acetone 50 μL topical): 6260 counts/30 min. | spontaneous locomotor activity lowering effect at a dose producing antipruritic effect, result in words ([3]; Compound A 3% w/v, cipamfylline 0.3% w/v): did not show spontaneous locomotor activity lowering effect | IC50 (PDE4): 3 nM | pruritogen-induced scratching behavior (counts of scratching), result in words ([4]; 3% w/v topical, all pruritogens of Tables 1 to 5): significantly inhibited | Counts of scratching (Mean) ([4]; pruritogen Compound 48/80 3 μg/50 μL intradermal, n = 15): 521 beats/30 min. | Counts of scratching (Mean) ([4]; pruritogen Substance P 300 nmol/50 μL intradermal, n = 15): 777 beats/30 min. | Counts of scratching (Mean) ([4]; pruritogen U-46619 10 nmol/50 μL intradermal, n = 15): 1069 beats/30 min. | Counts of scratching (Mean) ([4]; pruritogen histamine 300 nmol/50 μL intradermal, n = 11): 365 beats/30 min. | Counts of scratching (Mean) ([4]; pruritogen serotonin 100 nmol/50 μL intradermal, n = 10): 841 beats/30 min.

— patent US20140121240A1, “NOVEL PHARMACEUTICAL COMPOSITION” (MARUHO CO., LTD., priority 2011, published 2014)
